Entries after “also recorded” stand apart in the source; their conditions may differ. Read-outs that look alike come from different tables or passages of the source.
How the values were obtained:
[1] = system: LSC-enriched leukemia cells (MLL-AF9); assay: Leukemia coculture assay on primary MSC stroma (cobblestoning readout); assay type: cell-based, murine; settings: for leukemia-selective activity in coculture vs normal HSPCs: primary MSC stroma
Experimental: Whole bone marrow were harvested from C57/B16 actin-dsRed mice (006051, Jackson Labs), subjected to red blood cell lysis (Qiagen), then granulocyte-macrophage progenitors (GMPs) were isolated by Fluorescence-activated cell sorting (FACsAria, Becton Dickinson). GMPs were spinfected twice (2500 rpm, 90 min, 37 C) in the presence of mIL3 (10 ng/ml, Peprotech), mIL6 (10 ng/ml, Peprotech), and mSCF (10 ng/ml, Peprotech) with pMSCV-MLL-AF9-Neo virus then transplanted into lethally irradiated C57/B16 recipients. After disease onset, the spleens were harvested and transplanted into sublethally irradiated secondary recipients. Subsequent transplantation of bulk spleen cells from leukemic secondary mice was repeated twice to generate leukemic GMPs from quaternary transplant leukemic mouse bone marrow.
Long bones and hips from moribund leukemic mice were harvested, cleaned, crushed and sequentially passed through 100 and 70 μM filters (Falcon). The cells were RBC lysed (Qiagen) and stained in PBS+2% FBS (Omega). Antibodies included lineage markers CD4, CD8, Gr1, Mac1, IL-7R, and Ter119 (Caltag), c-kit (17-1172-83, eBioscience), Sca-1 (11-5981-82, eBioscience), CD34 (11-0341-85, eBioscience), and CD16/32 (25-0161-82, eBioscience). Hoechst 33258 (H21491, Invitrogen) was also used, to identify live cells. Cells were sorted on a FacsAria II (Becton Dickinson).
The humerii, tibiae, ilia, femurs, and spine were isolated from actin-GFP mice (000329, Jackson Lab) crushed using a mortar and pestle, washed in phosphate-buffered saline (PBS) without magnesium and calcium (Gibco) with 0.5% fetal bovine serum (FBS) (HyClone) and filtered through a 70-μm filter. Red blood cell lysis was performed with ammonium-chloride/potassium-chloride (ACK) lysing buffer (Lonza), the cells were resuspended in α-MEM (StemCell Technologies), 20% FBS (HyClone) and 1× Pen-Strep (CellGro), plated in 25 ml in 150-cm^2 tissue-culture flasks (three per mouse), and incubated at 33° C. with 5% CO2. After 2-3 days, the medium was replaced with fresh α-MEM with 20% FBS. After 8-14 days, the cells were rinsed, split by trypsinization (CellGro), pooled, filtered through a 70 μm filter, replated at 3-4 million cells per 150-cm^2 tissue-culture flask, and grown at 33° C. with 5% CO2 for 3-4 days until nearly confluent. The cells were trypsinized, filtered, and resuspended in 0.5% FBS in PBS with biotin-conjugated anti-mouse CD105 antibody (eBioscience) for 15-30 minutes at room temperature. The CD105-labeled cells were incubated with Dynabead M-280 streptavidin-linked magnetic beads (Invitrogen) for 15-30 minutes at 4° C. with agitation and isolated using magnetic separation and rinsed once. The CD105^+ cell fraction was replated at 1-2 million cells per 150-cm^2 tissue-culture flask and incubated at 33° C. with 5% CO2 for 2-3 days.
The MSCs were trypsinized, filtered, diluted in phenol-red-free alpha-MEM with 20% FBS, and plated (30 μl for a total of 2000 cells per well) on 384-well clear-bottomed black tissue-culture treated plate (3712, Corning) pretreated with fibronectin (Millipore). Plate covers (VWR) were added, the plates were spun and at 500 with slow braking, and the cells were incubated at room temperature for 60-90 minutes before incubation at 33° C. with 5% CO2 for 3 days prior to hematopoietic cell plating. […]

normal HSPCs = assay: Normal HSPC coculture on primary MSC stroma
Experimental: The material was cleaned, crushed and sequentially passed through 100 and 70 μM filters (Falcon). […] The biotin-labeled cells were spun down, resuspended in 0.5% FBS in PBS, and incubated for 15-30 minutes at 4° C. with agitation with 1 mL of Dynabead M-280 streptavidin-linked magnetic beads per 4 mice. The bead-linked cells were depleted using magnetic separation and rinsed once. The lineage- and CD48-depleted cell fraction was labeled with streptavidin-APC-Cy7 antibody from BD Biosciences and c-kit-APC, Sca-1-FITC, CD48-Pacific Blue, and CD150 PE-Cy7 antibodies from eBioscience. DsRed-positive lineage-Sca-1+c-kit+CD48− HSCs were sorted using a FACS DiVa or FACS ARIA (BD Biosciences).
A total of 20 μL of 20 μg/mL fibronectin (Millipore) in PBS was added to each well of a 384-well clear-bottomed black tissue-culture treated plate (Corning) and incubated for 30-120 minutes at 33° C. or 37° C. […] The fibronectin solution was removed from each well using a 24-channel wand aspirator; then 30 μL of BMSC solution was added to plate 2000 BMSCs/well. […] Each plate was covered with a sterile rayon breathable membrane (VWR) and plastic lid, and then spun at 500 rpm (approximately 60× gravity) with slow braking. The plates were incubated at room temperature for 60-90 minutes before incubation at 33° C. with 5% CO2 for 3 days prior to HSC addition.
The sorted HSCs, SLAMs and progenitor cells were resuspended in phenol-red free alpha-MEM with 20% FBS and diluted to 10,000 cells/mL. A total of 20 μL of cell solution containing 200 hematopoietic cells was added to each well using a multichannel pipettor or liquid-dispensing system. Each plate was covered with a sterile rayon breathable membrane (VWR) and plastic lid, and then spun at 500 rpm (approximately 60×gravity) with slow braking. The plates were incubated at room temperature for 60-90 minutes before incubation at 33° C. with 5% CO2 overnight prior to compound or cytokine addition.
Image analysis was performed using MetaXpress software from MDC and CellProfiler software from the Broad Institute of Harvard and MIT.
Compound addition and incubation was performed as described for the LSC coculture screen above, but without a media change or readdition of the compound.
The selected set was screened in 8-point dose against both normal HSPCs with a high number of replicates (6) and LSC-enriched leukemia cells, each cocultured on primary MSCs.

[2] = system: normal primary human CD34+ cells; assay: Alamar Blue assay for human progenitor cell toxicity; settings: for IC50: read-out: Normal Progenitor* IC50
Experimental: Normal G-CSF mobilized CD34+ cells (AllCells, LLC, Emeryville, Calif.), normal BM CD34 cells (MSKCC, New York, N.Y.) and cord blood CD34+ cells (New York Blood Center, New York) were previously frozen and thawed out before the proliferation assay was set up in 384-well plates. Briefly, 50 μl of IMDM medium containing 20% FBS (Gemini Bio-Product, West Sacramento, Calif.), 20 ng/ml of recombinant human Kit Ligand (rhKL), 20 ng/ml of rh-Interleukin-3 (rhIL-3), 20 ng/ml of rhG-CSF, 6 units/ml of rhEPO, 10-42-mercaptoethanol, 2 mM glutamine, 50 u/ml penicillin, 50 μg/ml streptomycin, 1,000 viable CD34+ cells in the presence of various doses of Broad compounds (drug-treated group) or 0.1% DMSO (control group) were incubated at 37° C. After 6 days, 5 μl of AlamaBlue (AbD Serotec, Raleigh, N.C.) was added to each well and further incubated overnight. The fluorescence signal was then measured with GeminiXS microplate reader (Molecular Devices, Sunnyvale, Calif.). Effect of small molecules to proliferation of CD34+ cells was reported as Relative fluorescent intensity (Relative Fluorescent Intensity=Fluorescent Intensity (drug-treated)/Fluorescent Intensity (Control).
Finally, experiments were performed to examine whether BRD7116 or lovastatic acid were likely to cause myelosuppression, a type of deleterious toxicity in patients resulting from harm to normal human hematopoietic progenitor cells. This consideration is especially important as conventional therapies currently used in the clinic have myelosuppressive toxicities that are dose-limiting. To this end, a hematopoietic progenitor assay was employed to compare the effects of BRD7116 and lovastatic acid to effects given by such known myelosuppressive compounds. In this assay, normal primary human CD34^+ cord blood cells were plated with cytokines in suspension, treated with compound for 7 days, and then examined for viability relative to DMSO treated controls.

normal murine HSPCs = assay: Triple coculture (LSCs and HSPCs on primary MSCs), normal HSPCs; settings: read-out: Normal HSPC* IC50
Experimental: (§1) As in the original assay approach, treatment of these triple cocultures began one day after hematopoietic cell plating and was assessed 5 days later.
(§2) An in vitro therapeutic index was determined for each compound, a comparative measure of the potential for anti-LSC efficacy relative to the potential for dose-limiting toxicities to normal HSCs (myeloablation), or to normal progenitors (myelosuppression). Specifically, ratios were created using the IC50s for primary murine HSPCs in triple coculture as the numerator, and the IC50s for primary murine leukemia inhibition in triple coculture as the denominator, toward assessing the potential for HSC harm relative to LSC inhibition.

MLL-AF9 LSC = assay: Triple coculture (LSCs and HSPCs on primary MSCs), leukemia cells; assay type: cell-based, murine; settings: murine LSCs in triple coculture with HSPCs on MSCs
Experimental: as §1, §2

[3] = Mus musculus, MLL-AF9, LSCs on primary MSC stroma, 8-point dose, read-out: Leukemia IC50
[4] = Mus musculus, read-out: Normal IC50, HSPCs on primary MSC stroma, 8-point dose
[5] = Mus musculus, MLL-AF9, statins (acid form), LSCs cocultured on primary MSC stroma, read-out: Leukemia IC50
[6] = Mus musculus, read-out: Normal IC50, statins (acid form), HSPCs cocultured on primary MSC stroma

For `O=C(c1ccccc1)c1cc[n+](Cc2ccccn2)cc1` [BRD1856], the IC50 [1, 3] was 813 nM and the IC50 (normal HSPCs; [4]) was > 20000 nM.
`COc1cc(/C=C/C(=O)N2CCC=CC2=O)cc(OC)c1OC` [Piperlongumine] was tested, and the IC50 ([1]; Mus musculus, MLL-AF9, read-out: Leukemia IC50) was 379 nM and the IC50 (normal HSPCs; Mus musculus, read-out: Normal IC50) was ~20000 nM.
With `CC[n+]1c(/C=C2/C=C(C)CC(C)C2)sc2ccccc21` (stereo not drawn) [BRD1319] the IC50 [1, 3] was ≤ 10 nM and the IC50 (normal HSPCs; [4]) was > 20000 nM.
In the case of `CC(C)c1c(C(=O)Nc2ccccc2)c(-c2ccccc2)c(-c2ccc(F)cc2)n1CC[C@@H](O)C[C@@H](O)CC(=O)O` [Atorvastatin], the IC50 [1, 5] is reported as ≤ 1900 nM, the “leukemia-selective activity in coculture vs normal HSPCs” value (shortened to “leukemia-selective activity”) [1] is reported as “selectively inhibited leukemia cobblestoning” and the IC50 (normal HSPCs; [6]) is reported as > 20000 nM.
`CC[n+]1c(/C=C2\C=C(C)CC(C)(C)C2)oc2ccccc21` [BRD0638] was tested, and the IC50 [1, 3] was ≤ 10 nM and the IC50 (normal HSPCs; [4]) was > 20000 nM.
For `CCOc1ccccc1NC(=O)C(C)Oc1ccc(OC)cc1` (stereo not drawn) [BRD1686], the IC50 [1, 3] was 1420 nM and the IC50 (normal HSPCs; [4]) was > 20000 nM.
In the case of `c1cc(CN2CCCNCCNCCCNCC2)ccc1CN1CCCNCCNCCCNCC1` [AMD3100], the “leukemia-selective activity” value [1] is reported as “showed selectivity for LSCs over HSPCs”.
`CC(C)n1c(/C=C/C(O)CC(O)CC(=O)O)c(-c2ccc(F)cc2)c2ccccc21` (stereo not drawn) [Fluvastatin] was tested, and the IC50 [1, 5] was 27.9 nM and the IC50 (normal HSPCs; [6]) was > 20000 nM.
Compound `COc1cccc2c1C(=O)c1c(O)c3c(c(O)c1C2=O)C[C@@](O)(C(C)=O)C[C@@H]3O[C@H]1C[C@H](N)[C@H](O)[C@H](C)O1` [Daunorubicin] has an IC50 ([2]; Homo sapiens, 168 h) of 20 nM and an IC50 (normal murine HSPCs; Mus musculus) of 50 nM.
In the case of `C=C1C(=O)O[C@@H]2[C@H]3O[C@]3(C)CC/C=C(\C)CC[C@@H]12` [Parthenolide], the IC50 [1, 3] is reported as 7500 nM and the IC50 (normal HSPCs; [4]) is reported as > 20000 nM.
In the case of `C[C@@H]1CN([C@@H](C)CO)C(=O)c2cccc(NC(=O)Nc3ccccc3)c2O[C@@H]1CN(C)Cc1ccc(C(=O)Nc2ccccc2N)cc1` [BRD6708], the IC50 [1, 3] is reported as 2140 nM and the IC50 (normal HSPCs; [4]) is reported as > 20000 nM.
In the case of `COc1cc2c(cc1O)CC[C@@H]1[C@@H]2CC[C@]2(C)[C@@H](O)CC[C@@H]12` [2-Methoxy estradiol], the IC50 [1, 3] is reported as 77 nM, the “leukemia-selective activity” value [1] is reported as “displayed leukemia selectivity” and the IC50 (normal HSPCs; [4]) is reported as > 20000 nM.
With `C[C@@H]1CN([C@@H](C)CO)C(=O)c2cccc(NC(=O)C3CCCCC3)c2O[C@@H]1CN(C)Cc1ccc(C(=O)Nc2ccccc2N)cc1` [BRD9608] the IC50 [1, 3] was 699 nM and the IC50 (normal HSPCs; [4]) was ~20000 nM.
With `Nc1ccn([C@@H]2O[C@H](CO)[C@@H](O)[C@@H]2O)c(=O)n1` [Ara-C] the IC50 (MLL-AF9 LSC) was 2500 nM, the “toxicity to hematopoietic progenitor cells” value ([2]; 7 days of exposure, viability relative to DMSO) was “kill progenitors; also recorded: displayed toxicity” and the IC50 ([2]; normal human hematopoietic progenitors, 7 days) was 2500 nM. The IC50 (normal murine HSPCs; normal murine HSPCs in triple coculture with LSCs on primary MSCs) was 5000 nM.
In the case of `CC(C)c1nc(N(C)S(C)(=O)=O)nc(-c2ccc(F)cc2)c1/C=C/[C@@H](O)C[C@@H](O)CC(=O)O` [Rosuvistatin], the “leukemia-selective activity” value [1] is reported as “selectively inhibited leukemia cobblestoning”, the IC50 ([1]; statins (acid form), LSCs cocultured on primary MSC stroma, read-out: Leukemia IC50) is reported as 1220 nM and the IC50 (normal HSPCs; read-out: Normal IC50, statins (acid form), HSPCs cocultured on primary MSC stroma) is reported as > 20000 nM.
In the case of `COc1cc2c(cc1OC)-c1c(C#N)c(-c3ccc(C)cc3)c(C(=O)c3cccs3)n1CC2` [BRD8404], the IC50 [1, 3] is reported as 149 nM and the IC50 (normal HSPCs; [4]) is reported as > 20000 nM.
With `COCc1c(C(C)C)nc(C(C)C)c(/C=C/[C@@H](O)C[C@@H](O)CC(=O)O)c1-c1ccc(F)cc1` [Cerivastatin] the IC50 [1, 5] was < 10 nM and the IC50 (normal HSPCs; [6]) was > 20000 nM.
`CCC(C)(C)C(=O)O[C@H]1C[C@@H](C)C=C2C=C[C@H](C)[C@H](CC[C@@H]3C[C@@H](O)CC(=O)O3)[C@H]21` [Simvastatin] was tested, and the IC50 [1, 5] was ≤ 15 nM and the IC50 (normal HSPCs; [6]) was > 20000 nM.
With Celastrol the IC50 ([1]; LSCs on primary MSC stroma, 8-point dose, read-out: Leukemia IC50) was 102 nM and the IC50 (normal HSPCs; read-out: Normal IC50, HSPCs on primary MSC stroma, 8-point dose) was > 20000 nM.
